In brackets after ≈: the same amount, converted by molar mass. Several values for one entry are separate records, joined by “and”; a condition that tells them apart may be missing. Equal values may be shown once. Read-outs that look alike come from different tables or passages of the source. Starred links: 1 amine or outer side, 2 acyl side, 3 side chain; linkers in the order of their positions; H or OH if unused. Positions of bridges follow the written chain, without caps; N, C: chain ends. Non-standard residues stand in square brackets, D forms with d. Residues, ends and D or L forms follow the SMILES beside them. *: point of attachment. pTerphenylCO(4''-OnC5H11) = CCCCCOc1ccc(-c2ccc(-c3ccc(C(=O)*)cc3)cc2)cc1; Orn(4R-OH,5R-OH) = O=C([C@H](C[C@@H](O)[C@@H](O)N[*:3])N[*:1])[*:2]; hTyr(3S-OH,4S-OH) = N[C@H](C(=O)O)[C@H](O)[C@@H](O)c1ccc(O)cc1; Pro(3S-OH,4S-Me) = C[C@H]1CN[C@H](C(=O)O)[C@H]1O; Hyp = O=C(O)[C@@H]1C[C@@H](O)CN1
How the values were obtained:
C. krusei ATCC 6258 = assay type: cell-based, Candida krusei
Method: (§1) Spontaneous mutant selection. […] Three individual colonies from each strain were used to start cultures in RPMI. […] One milliliter aliquots were spread onto SDA plates containing drug with sterile glass beads. Starting viable count was enumerated by triplicate plating of serial dilutions of the starting inoculum. […] Glycerol stocks of putative mutant colonies were stored at −80° C. […] Spontaneous mutation frequencies were calculated by dividing the number of resistant colonies on a given plate by the starting inoculum plated. A subset of mutants (weighted heavily towards those selected with CMP1) were then evaluated by MIC and sequencing of FKS gene hot spot regions.

[1] = system: C. glabrata ATCC 90030, ATCC 2001; assay: Broth microdilution MIC (CLSI), Examples 3 and 4; details: Nakaseomyces glabratus
Method: Antifungal susceptibility testing. Candida strains were cultured aerobically at 35° C. on SDA plates or in RPMI 1640 broth (pH 7.0). […] MIC assays were performed in triplicate.

Candida dubliniensis = assay: Broth microdilution of invasive fungal isolates (CLSI M27-A3/M38-A2); assay type: cell-based
C. parapsilosis CP02 = assay type: cell-based, Candida parapsilosis
Method: as §1

Candida glabrata = assay: microbe, parasite or virus in culture; assay type: cell-based
Candida krusei = assay: Broth microdilution of invasive fungal isolates (CLSI M27-A3/M38-A2); assay type: cell-based
[2] = SDA, minimum concentration to cleanly inhibit growth

CCCCCOc1ccc(-c2ccc(-c3ccc(C(=O)N[C@H]4C[C@@H](O)[C@@H](O)NC(=O)[C@@H]5[C@@H](O)[C@@H](C)CN5C(=O)[C@H]([C@@H](C)O)NC(=O)[C@H]([C@H](O)[C@@H](O)c5ccc(O)cc5)NC(=O)[C@@H]5C[C@@H](O)CN5C(=O)[C@H]([C@@H](C)O)NC4=O)cc3)cc2)cc1 [ANID, anidulafungin] ({pTerphenylCO(4''-OnC5H11)}-[Orn(4R-OH,5R-OH)]T[Hyp][hTyr(3S-OH,4S-OH)]T[Pro(3S-OH,4S-Me)]; lactam 1-C)
Median mutation frequency (C. krusei ATCC 6258): <3.38E−09
Plate concentration (C. krusei ATCC 6258; [2]): 0.25 µg/mL
Freq. (replicate mutation frequency) (C. krusei ATCC 6258; replicate plates 1-3): <3.38E−09 (2×) and <3.51E−09
MIC ([1]; ATCC2001|ATCC90030, 24 h, read-out: Broth MIC, ATCC 2001 wild-type, 24 h, ~50% inhibition): 0.06 µg/mL (≈ 0.0526 µM)
MIC ([1]; ATCC2001|ATCC90030, 24 h, read-out: Broth MIC, ATCC 90030 wild-type, 24 h, ~50% inhibition): 0.06 µg/mL (≈ 0.0526 µM)
MIC ([1]; ATCC2001|ATCC90030, ATCC 2001 spontaneous mutant, Fks2 HS1 D666N): 0.5 µg/mL (≈ 0.438 µM)
MIC ([1]; ATCC2001|ATCC90030, ATCC 2001 spontaneous mutant, Fks2 HS1 D666Y): 0.5 µg/mL (≈ 0.438 µM)
MIC ([1]; ATCC2001|ATCC90030, ATCC 2001 spontaneous mutant, Fks2 HS1 R665G): 0.5 µg/mL (≈ 0.438 µM)
MIC ([1]; ATCC2001|ATCC90030, ATCC 2001 spontaneous mutant, Fks2 HS1 S663F): 1 µg/mL (≈ 0.877 µM)
MIC ([1]; ATCC2001|ATCC90030, ATCC 2001 spontaneous mutant, Fks2 HS1 ΔF659): 4 µg/mL (≈ 3.51 µM)
MIC ([1]; ATCC2001|ATCC90030, ATCC 2001 spontaneous mutant, Fks2 HS2 R1378S): 0.25 µg/mL (≈ 0.219 µM)
MIC ([1]; ATCC2001|ATCC90030, ATCC 90030 spontaneous mutant, Fks2 HS1 D666H): 1 µg/mL (≈ 0.877 µM)
MIC ([1]; ATCC2001|ATCC90030, ATCC 90030 spontaneous mutant, Fks2 HS1 ΔF659): 2 µg/mL (≈ 1.75 µM)
Cumulative % of isolates inhibited at MIC 0.015 μg/mL (Candida dubliniensis; 11 isolates): (9.1) %
Cumulative % of isolates inhibited at MIC 0.03 μg/mL (Candida dubliniensis; 11 isolates): (36.4) %
Cumulative % of isolates inhibited at MIC 0.06 μg/mL (Candida dubliniensis; 11 isolates): (100.0) %
Number of isolates inhibited at MIC 0.015 μg/mL (Candida dubliniensis; 11 isolates): 1
Number of isolates inhibited at MIC 0.03 μg/mL (Candida dubliniensis; 11 isolates): 3
Number of isolates inhibited at MIC 0.06 μg/mL (Candida dubliniensis; 11 isolates): 7
MIC50 (Candida dubliniensis; Candida dubliniensis): 0.06 µg/mL (≈ 0.0526 µM)
MIC90 (Candida dubliniensis; Candida dubliniensis): 0.06 µg/mL (≈ 0.0526 µM)
Median mutation frequency (C. parapsilosis CP02): <1.04E−08
Plate concentration (C. parapsilosis CP02; [2]): 16 µg/mL
Freq. (replicate mutation frequency) (C. parapsilosis CP02; replicate plates 1-3): <1.04E−08 (2×) and <9.62E−09
Cumulative % of isolates inhibited at MIC 0.015 μg/mL (Candida glabrata): (1.0) %
Cumulative % of isolates inhibited at MIC 0.03 μg/mL (Candida glabrata): (12.0) %
Cumulative % of isolates inhibited at MIC 0.06 μg/mL (Candida glabrata): (74.0) %
Cumulative % of isolates inhibited at MIC 0.12 μg/mL (Candida glabrata): (95.0) %
Cumulative % of isolates inhibited at MIC 0.25 μg/mL (Candida glabrata): (95.0) %
Cumulative % of isolates inhibited at MIC 0.5 μg/mL (Candida glabrata): (95.0) %
Cumulative % of isolates inhibited at MIC 1 μg/mL (Candida glabrata): (95.0) %
Cumulative % of isolates inhibited at MIC 2 μg/mL (Candida glabrata): (98.0) %
Cumulative % of isolates inhibited at MIC 4 μg/mL (Candida glabrata): (100.0) %
Cumulative % of isolates inhibited at MIC ≤0.008 μg/mL (Candida glabrata): (1.0) %
Number of isolates inhibited at MIC 0.015 μg/mL (Candida glabrata): 0
Number of isolates inhibited at MIC 0.03 μg/mL (Candida glabrata): 11
Number of isolates inhibited at MIC 0.06 μg/mL (Candida glabrata): 62
Number of isolates inhibited at MIC 0.12 μg/mL (Candida glabrata): 21
Number of isolates inhibited at MIC 0.25 μg/mL (Candida glabrata): 0
Number of isolates inhibited at MIC 0.5 μg/mL (Candida glabrata): 0
Number of isolates inhibited at MIC 1 μg/mL (Candida glabrata): 0
Number of isolates inhibited at MIC 2 μg/mL (Candida glabrata): 3
Number of isolates inhibited at MIC 4 μg/mL (Candida glabrata): 2
Number of isolates inhibited at MIC ≤0.008 μg/mL (Candida glabrata): 1
MIC50 (Candida glabrata; Nakaseomyces glabratus, read-out: MIC50): 0.06 µg/mL (≈ 0.0526 µM)
MIC90 (Candida glabrata; Nakaseomyces glabratus, read-out: MIC90): 0.12 µg/mL (≈ 0.105 µM)
MIC (Candida glabrata; Nakaseomyces glabratus, read-out: MIC according to CLSI method): 2 µg/mL (≈ 1.75 µM)
MIC (Candida glabrata; Nakaseomyces glabratus, read-out: MIC results): 2 to 4 µg/mL (≈ 1.75 to 3.51 µM)
MIC according to CLSI method (Candida glabrata; listed as ANF): 4 µg/mL (≈ 3.51 µM)
Cumulative % of isolates inhibited at MIC 0.015 μg/mL (Candida krusei; 16 isolates): 6.2%
Cumulative % of isolates inhibited at MIC 0.03 μg/mL (Candida krusei; 16 isolates): (43.8) %
Cumulative % of isolates inhibited at MIC 0.06 μg/mL (Candida krusei; 16 isolates): (100.0) %
Number of isolates inhibited at MIC 0.015 μg/mL (Candida krusei; 16 isolates): 1
Number of isolates inhibited at MIC 0.03 μg/mL (Candida krusei; 16 isolates): 6
Number of isolates inhibited at MIC 0.06 μg/mL (Candida krusei; 16 isolates): 9
MIC50 (Candida krusei; Pichia kudriavzevii): 0.06 µg/mL (≈ 0.0526 µM)
MIC90 (Candida krusei; Pichia kudriavzevii): 0.06 µg/mL (≈ 0.0526 µM)

From patent US20180256673A1, “METHODS FOR TREATING FUNGAL INFECTIONS” (priority 2015, published 2018)
